Here are results for 2 compounds from patent US20120295838A1, “Selective poly-substituted glycine antibiotics and related compositions” (priority 2008, published 2012).

One data set has as its system E. coli JM109. In kind it is cell-based. As to conditions: Table 1; SR = (HD10)/(E. coli MIC). The text has this: An initial set of 15 ampetoid analogs was synthesized to determine whether peptoids are affected by structural and sequence modifications in a manner consistent with AMP activities. The designs for ampetoids in this library were derived from two antibacterial and selective amphipathic dodecamers, 1 and 2. Peptoid 1 [H-(Nlys-Nspe-Nspe)4-NH2] is composed of 2/3 Nspe, the peptoid analog of phenylalanine, and 1/3 Mys, the peptoid analog of lysine (see FIG. 1 for the structures of representative peptoid monomers and corresponding N-substituents). Peptoid 2 [H-(Mys-Nssb-Nspe)4-NH2] contains 1/3 isoleucine-like Nssb monomers in place of Nspe. The variant sequences were designed to effect changes in chirality, length, hydrophobicity, charge, and amphipathicity. All of these compounds were tested for antibacterial activity against representative BSL1 Gram-negative (E. coli JM109) and Gram-positive (B. subtilis BR151) bacterial strains. As an initial measure of selectivity, the lytic activity of the peptoids was determined against human erythrocytes. Table 1 summarizes the sequences synthesized, the solvent composition at RP-HPLC elution as a relative measure of molecular hydrophobicity, and antibacterial and hemolytic activities.
Antibacterial assays. MICs were determined according to CLSI M7-A6 protocols in a 96-well microtiter plate. […]

A further data set concerns human erythrocytes. Description: Hemolysis assay. In kind it is cell-based. The gist of the method: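 Peptoid dilution series (1:2 in PBS) combined with equal volume of 20 vol % human red cells from heparinised blood, 37 °C for 1 h. Released hemoglobin measured as supernatant absorbance at 350 nm post-centrifugation, scaled between PBS-only wells and 0.2 vol % Triton X-100 total lysis.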

The next data set concerns E. coli ATCC 35218. The data set is classed as cell-based. As to conditions: Table 8; CAMHB.
The nature of a further data set: MTS assay, NIH 3T3 cells. The data set is classed as cell-based, mouse. As to conditions: NIH 3T3 fibroblast cells; Table 6; 50% inhibitory dose against NIH 3T3 mouse fibroblast cells; read-out: ID50. The procedure, abridged: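 NIH/3T3 cells seeded at 5,000 per well, grown a day in DMEM with 10% FBS, then washed and exposed to serially diluted peptoid in HBSS together with MTS reagent. Absorbance at 490 nm read after 3 hours at 37 °C as a measure of metabolic activity; mean of six replicates.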

Data set [1] relates to Staphyloccus aureus (ATCC #25923). Description: Murine intraperitoneal infection model. The data set is classed as in vivo. As to conditions: mouse, S. aureus I.P., 4 mg/kg peptoid I.P.; eleven mice for 1-Nhis6,12. The method, then: Using a murine peritoneal injection mouse model, the ability of peptoids to treat infection was evaluated in vivo. The results from three separate studies of peptoid 1 and two of peptoid 1-Nhis6,12 against saline treated controls are shown in FIG. 7. The horizontal line represents the geometric mean of each population.
Murine intraperitoneal infection model. Bacteria was prepared by inoculating 5 mL of MHB with a single colony of Staphyloccus aureus (ATCC #25923) from a freshly streaked plate and grown overnight at 37 C. The following morning, the bacteria was subcultured by diluting 1/3 in MHB and grown for approximately 1 .5 hours. The bacteria were then diluted 10-fold in a 5% mucin in PBS solution and thoroughly mixed. A sample was reserved to later determine the amount of bacteria the mice received.
Mice were weighed, marked, and injected I.P. with 200 uL of S. aureus inoculum. Four hours post infection, mice were treated I.P. with 4 mg/kg peptoid (˜100 ug per mouse). The infection is allowed to proceed overnight. Mice were euthanized by CO2 asphyxiation after 24 hours, and the peritoneal cavity was exposed and lavaged with 5 mL PBS. The lavage was mixed and reserved on ice until plating. The lavages were diluted to 10^−5 (in1/10 increments) in PBS, and all dilutions were plated onto MH agar, in duplicate. 50 uL of lavage was spot plated, allowed to dry, and incubated overnight at 37° C. Colonies were counted the following day, and the CFU/ml of each sample was calculated. Plates that had too many colonies to count were assigned an arbitrary number of 1000 colonies.

Data set [2] has as its system both strains of E. faecalis. The data set is classed as cell-based. As to conditions: text summary of Table 7A. The procedure:
The activities of ampetoids tested against BSL2 Gram-positive strains, however, compared very favorably to those of pexiganan.
Broad-spectrum antibacterial assays. MICs of compounds were determined by microdilution procedure in Mueller-Hinton broth (MHB) in accordance with CLSI M7-A6 protocols in a manner similar to that described for the screen antibacterial assays. Inoculated microtiter plates were incubated at 35° C. for 24 hours prior to the result being recorded. Four ATCC strains that were used as standards are recommended by CLSI: Pseudomonas aeruginosa ATCC 27853, Escherichia coli ATCC 25922, Staphylococcus aureus ATCC 29213 and Enterococcus faecalis ATCC 29212. Other strains from the ATCC collection include Proteus vulgaris ATCC 49132, Proteus mirabilis ATCC 35659, Klebsiella pneumoniae ATCC 33495, Enterobacter aerogenes ATCC 35029 and Serratia marcescens ATCC 13880. S. aureus NRS100 (COL) is a well characterized methicillian-resistant S. aureus (MRSA) strain. The strains S. aureus VAN1 and S. aureus VAN2, vancomycin-resistant MRSA strains that were isolated in Michigan and Pennsylvania, were the first vancomycin-resistant strains clinically isolated. S. aureus NRS 119 and S. aureus NRS 120 are linezolid-resistant isolates from the Network on Antimicrobial Resistance in S. aureus (NARSA) collection. […]

Numbered stars: 1 amine (or outer) side, 2 acyl side, 3 side chain; on linkers, the order of the positions; unused ones are H or OH. Square brackets hold non-standard residues; d marks the D form. Peptide text beside a SMILES is read from it. X2 = CCC[C@H](C)N(CC(=O)[*:2])[*:1]; Nspe = C[C@H](NCC(=O)O)c1ccccc1; Nlys = NCCCCNCC(=O)O

Take `CCC[C@H](C)N(CC(=O)N(CC(N)=O)[C@@H](C)c1ccccc1)C(=O)CN(CCCCN)C(=O)CN(C(=O)CN(C(=O)CN(CCCCN)C(=O)CN(C(=O)CN(C(=O)CN(CCCCN)C(=O)CN(C(=O)CN(C(=O)CNCCCCN)[C@@H](C)CCC)[C@@H](C)c1ccccc1)[C@@H](C)CCC)[C@@H](C)c1ccccc1)[C@@H](C)CCC)[C@@H](C)c1ccccc1` [2-Nsap2,5,8,11, H-(Nlys-Nsap-Nspe)4-NH2] (H-[Nlys][X2][Nspe][Nlys][X2][Nspe][Nlys][X2][Nspe][Nlys][X2][Nspe]-NH2): the “Selectivity ratio (SR)” value with E. coli JM109 was greater than 16.
Consider `C[C@@H](c1ccccc1)N(CC(N)=O)C(=O)CN(C(=O)CN(CCCCN)C(=O)CN(C(=O)CN(C(=O)CN(CCCCN)C(=O)CN(C(=O)CN(C(=O)CN(CCCCN)C(=O)CN(C(=O)CN(C(=O)CNCCCCN)[C@@H](C)c1ccccc1)[C@@H](C)c1ccccc1)[C@@H](C)c1ccccc1)[C@@H](C)c1ccccc1)[C@@H](C)c1ccccc1)[C@@H](C)c1ccccc1)[C@@H](C)c1ccccc1` [compound 1, H-(NLys-Nspe-Nspe)4-NH2] (H-[Nlys][Nspe][Nspe][Nlys][Nspe][Nspe][Nlys][Nspe][Nspe][Nlys][Nspe][Nspe]-NH2), for which, in the data set on human erythrocytes (Table 6, 10% hemolytic dose), the HD10 was 21 µM. In the data set with human erythrocytes (Table 8), the HD10 stood at 14 µM and the HD50 was determined as 63 µM. For the same compound, in the data set with E. coli ATCC 35218, the “MIC for E. coli ATCC 35218” value was 6.3 µM. Also, the CC50 at 3 h in “MTS assay, NIH 3T3 cells” was 5.1 µM. Also, the “mice that died prematurely during the exposure period” value in data set [1] is “no mice”. For the same compound, the “MIC, range over both strains of E. faecalis” value in data set [2] is 4 to 8 µg/mL.
